This data set is described as follows: Solubility as a function of pH / solubility in pure water. The format is physicochemical. On the procedure: The solubility of ipamorelin free base at different pH values is shown graphically in FIG. 1. At pH values less than approximately 10, the drug is very soluble in aqueous media (>100 mg/ml).
This dramatic change in solubility around pH 10 is reflected in the solubilities of ipamorelin free base and its diacetate salt in pure water. The diacetate salt dissolves readily: it is capable of producing solutions greater than 100 mg/ml, with a final pH of about 7.5. The free base is much less soluble; only about 1.5 mg/ml was measured in a saturated solution, pH=9.83. However, solutions of much higher concentration can be achieved by simply adjusting the pH to around neutrality, using a solution of HCl or a similar acid.

≈ marks a conversion by molar mass, not a printed value. Structures can show the parent of a compound that is named as a salt. Where two headings read alike, the source gives them in different places. Where a SMILES comes first, the peptide text is derived from it. [ ]: non-standard residue; d: D form. d2Nal = N[C@H](Cc1ccc2ccccc2c1)C(=O)O; Aib = CC(C)(N)C(=O)O A value given as a limit tells only on which side of the number the result lay.

Broadly, the solubility is the concentration that dissolves in the medium under given conditions. As to `CC(C)(N)C(=O)N[C@@H](Cc1c[nH]cn1)C(=O)N[C@H](Cc1ccc2ccccc2c1)C(=O)N[C@H](Cc1ccccc1)C(=O)N[C@@H](CCCCN)C(N)=O` [diacetate salt] (H-[Aib]H[d2Nal][dF]K-NH2), for the setting “pH 7.5, pure water, final pH of about 7.5, read-out: solubility in pure water”, the solubility is more than 100 mg/mL.
With `CC(C)(N)C(=O)N[C@@H](Cc1c[nH]cn1)C(=O)N[C@H](Cc1ccc2ccccc2c1)C(=O)N[C@H](Cc1ccccc1)C(=O)N[C@@H](CCCCN)C(N)=O` [ipamorelin free base, α-Methylalanine-L-histidine-D-β-(2-naphthyl)-alanine-D-phenylalanine-L-lysinamide] (H-[Aib]H[d2Nal][dF]K-NH2), the solubility runs as follows: (aqueous media, pH values less than approximately 10, read-out: solubility in aqueous media) more than 100 mg/mL; (pure water, saturated solution, pH=9.83, read-out: solubility in pure water (saturated solution)) approximately 1.5 mg/mL (≈ 2110 µM).

(Values after US20100317581A1, “Ipamorelin Diacetate Injection and Infusion Solutions” (Helsinn Therapeutics (U.S.), Inc., priority 2009, published 2010).)
